Source: ChEMBL document CHEMBL1201862, “PubChem BioAssay data set” (2004)
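These data come from cells grown in 96-well plates and exposed to compound for 48 hours at five concentrations. GI50 is the concentration that inhibits growth by half.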 The source made the active and inactive calls. Cut-off read from the data, not from the text of the source: active = GI50 up to about 1.1 µM and inactive = higher.

What was measured:
Assay in all cases: growth of human tumour cells (NCI), 48 h
786-0 = test system: 786-0
A498 = test system: A498
A549 = test system: A549
ACHN = test system: ACHN
BT-549 = test system: BT-549
CAKI-1 = test system: CAKI-1
CCRF-CEM = test system: CCRF-CEM
COLO 205 = test system: COLO 205
DU-145 = test system: DU-145
EKVX = test system: EKVX
HCT-116 = test system: HCT-116
HCT-15 = test system: HCT-15
HL-60 = test system: HL-60
HOP-62 = test system: HOP-62
HOP-92 = test system: HOP-92
HT-29 = test system: HT-29
Hs-578T = test system: Hs-578T
IGROV-1 = test system: IGROV-1
K562 = test system: K562
KM12 = test system: KM12
LOX IMVI = test system: LOX IMVI
M14 = test system: M14
MCF7 = test system: MCF7
MDA-MB-231 = test system: MDA-MB-231
MDA-MB-435 = test system: MDA-MB-435
MDA-N = test system: MDA-N
MOLT-4 = test system: MOLT-4
Malme-3M = test system: Malme-3M
NCI-H226 = test system: NCI-H226
NCI-H23 = test system: NCI-H23
NCI-H460 = test system: NCI-H460
NCI-H522 = test system: NCI-H522
NCI/ADR-RES = test system: NCI/ADR-RES
OVCAR-3 = test system: OVCAR-3
OVCAR-4 = test system: OVCAR-4
OVCAR-5 = test system: OVCAR-5
OVCAR-8 = test system: OVCAR-8
PC-3 = test system: PC-3
RPMI-8226 = test system: RPMI-8226
RXF 393 = test system: RXF 393
SF-268 = test system: SF-268
SF-295 = test system: SF-295
SF-539 = test system: SF-539
SK-MEL-28 = test system: SK-MEL-28
SK-MEL-2 = test system: SK-MEL-2
SK-MEL-5 = test system: SK-MEL-5
SK-OV-3 = test system: SK-OV-3
SN12C = test system: SN12C
SNB-19 = test system: SNB-19
SNB-75 = test system: SNB-75
SR = test system: SR
SW-620 = test system: SW-620
T47D = test system: T47D
TK-10 = test system: TK-10
U-251 = test system: U-251
UACC-257 = test system: UACC-257
UACC-62 = test system: UACC-62

CC1(C)CC(=O)C(C(c2cccc(O)c2O)C2C(=O)CC(C)(C)CC2=O)C(=O)C1
GI50 (786-0): 52.6 µM (inactive)
GI50 (A498): > 100 µM (inactive)
GI50 (A549): > 100 µM (inactive)
GI50 (ACHN): > 100 µM (inactive)
GI50 (BT-549): > 100 µM (inactive)
GI50 (CAKI-1): > 100 µM (inactive)
GI50 (CCRF-CEM): 20.1 µM (inactive)
GI50 (COLO 205): > 100 µM (inactive)
GI50 (DU-145): > 100 µM (inactive)
GI50 (EKVX): > 100 µM (inactive)
GI50 (HCT-116): > 100 µM (inactive)
GI50 (HCT-15): 57.1 µM
GI50 (HL-60): < 0.01 µM (active)
GI50 (HOP-62): > 100 µM (inactive)
GI50 (HOP-92): 49.3 µM (inactive)
GI50 (HT-29): > 100 µM (inactive)
GI50 (Hs-578T): 74.5 µM (inactive)
GI50 (IGROV-1): 43.9 µM (inactive)
GI50 (K562): 92.9 µM (inactive)
GI50 (KM12): > 100 µM (inactive)
GI50 (LOX IMVI): 81.8 µM (inactive)
GI50 (M14): > 100 µM (inactive)
GI50 (MCF7): 49.2 µM (inactive)
GI50 (MDA-MB-231): > 100 µM (inactive)
GI50 (MDA-MB-435): 91 µM (inactive)
GI50 (MDA-N): > 100 µM (inactive)
GI50 (MOLT-4): 30.3 µM (inactive)
GI50 (Malme-3M): > 100 µM (inactive)
GI50 (NCI-H226): > 100 µM (inactive)
GI50 (NCI-H23): > 100 µM (inactive)
GI50 (NCI-H460): > 100 µM (inactive)
GI50 (NCI-H522): 63.2 µM (inactive)
GI50 (NCI/ADR-RES): > 100 µM (inactive)
GI50 (OVCAR-3): 97.7 µM (inactive)
GI50 (OVCAR-4): > 100 µM (inactive)
GI50 (OVCAR-5): > 100 µM (inactive)
GI50 (OVCAR-8): 81.7 µM (inactive)
GI50 (PC-3): > 100 µM (inactive)
GI50 (RPMI-8226): > 100 µM (inactive)
GI50 (RXF 393): > 100 µM (inactive)
GI50 (SF-268): 73.8 µM (inactive)
GI50 (SF-295): > 100 µM (inactive)
GI50 (SF-539): > 100 µM (inactive)
GI50 (SK-MEL-28): > 100 µM (inactive)
GI50 (SK-MEL-2): 76.6 µM (inactive)
GI50 (SK-MEL-5): > 100 µM (inactive)
GI50 (SK-OV-3): > 100 µM (inactive)
GI50 (SN12C): > 100 µM (inactive)
GI50 (SNB-19): > 100 µM (inactive)
GI50 (SNB-75): > 100 µM (inactive)
GI50 (SR): 36 µM (inactive)
GI50 (SW-620): > 100 µM (inactive)
GI50 (T47D): 91.2 µM (inactive)
GI50 (TK-10): > 100 µM (inactive)
GI50 (U-251): > 100 µM (inactive)
GI50 (UACC-257): > 100 µM (inactive)
GI50 (UACC-62): > 100 µM (inactive)
